# Measured values reported in patent US20230053540A1, “TREATMENT OF LIVER INJURY” (Massachusetts Institute of Technology, priority 2019, published 2023).
# System: hepatocytes
# Test: Seq-Well scRNA-Seq of hepatocytes after APAP overdose (signature scores, DEG vs untreated)
# Type: in vivo, mouse
# Conditions: APAP vs. UT
compound,measurement,value
"CC(=O)Nc1ccc(O)cc1 [APAP, acetaminophen]",Hmgcs2 avg_logFC,0.3105
same,Hmgcs2 pct.1,0.974
same,Hmox1 avg_logFC,0.3298
same,Hmox1 pct.1,0.108
same,Hnf4a avg_logFC,0.4538
same,Hnf4a pct.1,0.876
same,Hp avg_logFC,0.2604
same,Hp pct.1,0.998
same,Hrg avg_logFC,0.321
same,Hrg pct.1,0.88
same,Hsd3b5 avg_logFC,−0.4712
same,Hsd3b5 pct.1,0.367
same,Hsd17b13 avg_logFC,0.4437
same,Hsd17b13 pct.1,0.798
same,Hspa5 avg_logFC,0.4048
same,Hspa5 pct.1,0.971
same,Hyou1 avg_logFC,0.3658
same,Hyou1 pct.1,0.561
same,Igfbp4 avg_logFC,0.3148
same,Igfbp4 pct.1,0.919
same,Iigp1 avg_logFC,0.3448
same,Iigp1 pct.1,0.851
same,Il1r1 avg_logFC,0.3633
same,Il1r1 pct.1,0.39
same,Insig1 avg_logFC,0.2541
same,Insig1 pct.1,0.597
same,Itih2 avg_logFC,0.2682
same,Itih2 pct.1,0.942
same,Kif1b avg_logFC,0.264
same,Kif1b pct.1,0.629
same,Krt18 avg_logFC,0.3307
same,Krt18 pct.1,0.72
same,Lars2 avg_logFC,1.069
same,Lars2 pct.1,0.997
same,Lifr avg_logFC,−0.3532
same,Lifr pct.1,0.608
same,Lipa avg_logFC,0.2577
same,Lipa pct.1,0.73
same,Lpgat1 avg_logFC,0.3539
same,Lpgat1 pct.1,0.693
same,Lpin2 avg_logFC,0.3984
same,Lpin2 pct.1,0.79
same,Lrg1 avg_logFC,0.3478
same,Lrg1 pct.1,0.861
same,Lrrc58 avg_logFC,0.2998
same,Lrrc58 pct.1,0.542
same,Man2a1 avg_logFC,0.3404
same,Man2a1 pct.1,0.742
same,Mat1a avg_logFC,0.75
same,Mat1a pct.1,0.983
same,Mbnl1 avg_logFC,0.251
same,Mbnl1 pct.1,0.511
same,Mfsd2a avg_logFC,0.4484
same,Mfsd2a pct.1,0.413
same,Mia3 avg_logFC,0.2557
same,Mia3 pct.1,0.749
same,Mt1 avg_logFC,0.8909
same,Mt1 pct.1,0.701
same,Mt2 avg_logFC,0.6697
same,Mt2 pct.1,0.518
same,Mup3 avg_logFC,−0.5425
same,Mup3 pct.1,0.999
same,Mup4 avg_logFC,−1.001
same,Mup4 pct.1,0.716
same,Mup5 avg_logFC,−1.342
same,Mup5 pct.1,0.541
same,Mup6 avg_logFC,−1.882
same,Mup6 pct.1,0.804
same,Mup7 avg_logFC,−0.6015
same,Mup7 pct.1,0.937
same,Mup8 avg_logFC,−0.7268
same,Mup8 pct.1,0.13
same,Mup9 avg_logFC,−1.914
same,Mup9 pct.1,0.594
same,Mup11 avg_logFC,−1.728
same,Mup11 pct.1,0.84
same,Mup12 avg_logFC,−0.3713
same,Mup12 pct.1,0.665
same,Mup15 avg_logFC,−1.26
same,Mup15 pct.1,0.166
same,Mup16 avg_logFC,−1.125
same,Mup16 pct.1,0.594
same,Mup17 avg_logFC,−2.017
same,Mup17 pct.1,0.947
same,Mup18 avg_logFC,−1.639
same,Mup18 pct.1,0.838
same,Mup19 avg_logFC,−1.786
same,Mup19 pct.1,0.916
same,Mup21 avg_logFC,−0.8723
same,Mup21 pct.1,0.702
same,Myh9 avg_logFC,0.4507
same,Myh9 pct.1,0.531
same,Ndrg2 avg_logFC,0.2845
same,Ndrg2 pct.1,0.956
same,Ndufa4 avg_logFC,−0.2617
same,Ndufa4 pct.1,0.851
same,Ndufs6 avg_logFC,−0.2721
same,Ndufs6 pct.1,0.678
same,Nudt7 avg_logFC,−0.6192
same,Nudt7 pct.1,0.691
same,P4hb avg_logFC,0.2586
same,P4hb pct.1,0.958
same,Pabpc1 avg_logFC,0.3735
same,Pabpc1 pct.1,0.75
same,Picalm avg_logFC,0.2666
same,Picalm pct.1,0.558
same,Pigr avg_logFC,0.2747
same,Pigr pct.1,0.952
same,Plin2 avg_logFC,0.3714
same,Plin2 pct.1,0.799
same,Prdx1 avg_logFC,−0.3499
same,Prdx1 pct.1,0.878
same,Prdx4 avg_logFC,−0.2905
same,Prdx4 pct.1,0.55
same,Pten avg_logFC,0.265
same,Pten pct.1,0.645
same,Ranbp2 avg_logFC,0.2567
same,Ranbp2 pct.1,0.555
same,Reep6 avg_logFC,0.2892
same,Reep6 pct.1,0.837
same,Retsat avg_logFC,0.4126
same,Retsat pct.1,0.87
same,Rora avg_logFC,0.2853
same,Rora pct.1,0.547
same,Rpl36al avg_logFC,−0.2702
same,Rpl36al pct.1,0.495
same,Rps15 avg_logFC,−0.2722
same,Rps15 pct.1,0.49
same,S100a9 avg_logFC,0.3176
same,S100a9 pct.1,0.058
same,Sdhc avg_logFC,0.2605
same,Sdhc pct.1,0.738
same,Sec61a1 avg_logFC,0.2648
same,Sec61a1 pct.1,0.642
same,Selenbp2 avg_logFC,−0.8304
same,Selenbp2 pct.1,0.751
same,Sephs2 avg_logFC,0.4286
same,Sephs2 pct.1,0.865
same,Sepp1 avg_logFC,0.3455
same,Sepp1 pct.1,1
same,Serpina1a avg_logFC,−0.3347
same,Serpina1a pct.1,0.96
same,Serpina1e avg_logFC,−0.4681
same,Serpina1e pct.1,0.99
same,Serpina3m avg_logFC,0.4597
same,Serpina3m pct.1,0.836
same,Serpina3n avg_logFC,0.4496
same,Serpina3n pct.1,0.76
same,Serpina12 avg_logFC,−0.279
same,Serpina12 pct.1,0.362
same,Sfxn1 avg_logFC,0.2624
same,Sfxn1 pct.1,0.636
same,Sh3glb1 avg_logFC,0.2521
same,Sh3glb1 pct.1,0.47
same,Slc4a4 avg_logFC,0.2827
same,Slc4a4 pct.1,0.558
same,Slc25a47 avg_logFC,0.3096
same,Slc25a47 pct.1,0.927
same,Slc39a14 avg_logFC,0.356
same,Slc39a14 pct.1,0.552
same,Slc40a1 avg_logFC,0.2768
same,Slc40a1 pct.1,0.517
same,Slco1a4 avg_logFC,0.3826
same,Slco1a4 pct.1,0.484
same,Snord118 avg_logFC,0.4707
same,Snord118 pct.1,0.531
same,Srxn1 avg_logFC,0.564
same,Srxn1 pct.1,0.369
same,Ssr3 avg_logFC,0.2529
same,Ssr3 pct.1,0.732
same,St3gal5 avg_logFC,0.3876
same,St3gal5 pct.1,0.695
same,Sult1a1 avg_logFC,0.3652
same,Sult1a1 pct.1,0.799
same,Tgoln1 avg_logFC,0.2677
same,Tgoln1 pct.1,0.713
same,Tm4sf4 avg_logFC,0.276
same,Tm4sf4 pct.1,0.493
same,Tmed5 avg_logFC,0.3027
same,Tmed5 pct.1,0.689
same,Tmem205 avg_logFC,−0.2953
same,Tmem205 pct.1,0.877
same,Tnfrsf12a avg_logFC,0.2588
same,Tnfrsf12a pct.1,0.193
same,Trp53inp1 avg_logFC,0.3977
same,Trp53inp1 pct.1,0.526
same,Ttpa avg_logFC,0.3932
same,Ttpa pct.1,0.916
same,Txnrd1 pct.1,0.64
same,Uroc1 avg_logFC,0.3135
same,Uroc1 pct.1,0.74
same,Usp9x avg_logFC,0.2541
same,Usp9x pct.1,0.503
same,Wbp1l avg_logFC,0.3662
same,Wbp1l pct.1,0.768
same,Zfp91 avg_logFC,0.2619
same,Zfp91 pct.1,0.666
same,mmu-mir-6240 avg_logFC,0.3395
same,mmu-mir-6240 pct.1,0.22
same,mt-Co1 avg_logFC,−0.9219
same,mt-Co1 pct.1,0.977
same,mt-Co2 avg_logFC,−1.078
